Measurements published in patent US7585859B2, “PDE4B inhibitors and uses therefor” (Plexxikon, Inc., priority 2004, dated 2009).

Key:
Assay type in all cases: biochemical
[1] = target: T1, PDE4D (Homo sapiens, UniProt Q08499); assay: PDE4 IC50 determination by Scintillation Proximity Assay, PDE4D; conditions: Table 1B, Formula I compounds; read-out: IC50 PDE4D
T1 construct: PDE4D: The catalytic domain of human PDE4B from S3 16-V692; His6 (N); thrombin cleavage site (N); made in house; host or cells: E. coli
Procedure, shortened: (§1)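 Hydrolysis of [^3H]cAMP measured by SPA with yttrium silicate beads, which bind the [^3H]AMP product strongly and cAMP weakly. Enzyme at 80 ng/ml for PDE4B, 4 ng/ml for PDE4D; 30 min at 30°.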

[2] = target: T2, full-length human PDE4B2 isozyme (Homo sapiens, UniProt Q07343); assay: PDE4 IC50 determination by Scintillation Proximity Assay, PDE4B2; conditions: Table 1B, Formula I compounds; read-out: IC50 PDE4B2
T2 construct: The full-length human PDE4B2 isozyme; His6 (N); TEV cleavage site (N); made in house; host or cells: baculovirus infected insect cells (unpurified lysate)
Protocol: (§2) IC50s were determined by Scintillation Proximity Assay (SPA). The principle of the assay is based on the fact that cAMP, the PDE4 substrate, binds weakly to Yittrium Silicate SPA beads, whereas AMP, the product of PDE4 hydrolysis binds strongly. Thus, the extent of PDE4 hydrolysis of a sample of [^3H]cAMP can be measured because only the
(§3) [^3H]AMP produced by PDE4 hydrolysis will bind to the SPA beads and produce a scintillation signal.
(§4) PDE4 enzymes used for IC50 assays were:
PDE4B2: The full-length human PDE4B2 isozyme with an N-terminal His6 tag (SEQ ID NO: 18) and TEV cleavage site expressed in baculovirus infected insect cells. The enzyme was not purified from the cell lysates, so enzyme concentrations were not determined. Enzyme was stored in 50% glycerol at −20°.
(§5) Compounds tested (see Tables 3B, 4B and 5A for compounds and results) were 3-fold serially diluted 11 times in DMSO from a starting concentration of 4 mM or 40 μM, depending on compound potency. 1 μl of each dilution was transferred into duplicate wells of a white polystyrene 384-well assay plate (Coming #3705). In addition to the compound dilutions, each assay plate contained control wells with 1 μl of DMSO (to define 0% enzyme inhibition) or 1 μl of 200 μM roflumilast (to define 100% enzyme inhibition). Using a Beckman FX robot, 10 μl of [^3H] cAMP (Amersham TRK559) at 2 mCi/ml in assay buffer (50 mM Tris, pH 7.5; 8.3 mM MgCl; 1.7 mM EGTA; 0.01% BSA) was transferred to each assay well. Next, 10 μl of PDE4 enzyme in assay buffer was added and the plates were shaken for 30 s. at 1000 rpm to start the cAMP hydrolysis reaction. The concentrations of enzyme used were: PDE4B, 80 ng/ml; PDE4D, 4 ng/ml; PDE4B2, 2.5 μl of 50% glycerol stock/ml; PDE4D5 0.083 μl of 50% glycerol stock/ml. Assay plates were covered and incubated for 30 min. at 30°. Reactions were stopped by robotic addition of 10 μl of 5 mg/ml SPA beads (Amersham RPNQ0013) in 18 mM ZnSO4. The assay plates were covered with clear plastic film, centrifuged for 1 min. at 1000 RPM to settle the SPA beads, and counted using a Wallac TriLux scintillation counter. IC50's were calculated from the raw assay data by non-linear regression curve fitting using the Assay Explorer software package from MDL.

[3] = target: T3, full-length human PDE4D5 isozyme (Homo sapiens, UniProt Q08499); assay: PDE4 IC50 determination by Scintillation Proximity Assay, PDE4D5; conditions: Table 1B, Formula I compounds; read-out: IC50 PDE4D5
T3 construct: The full-length human PDE4D5 isozyme; His6 (N); TEV cleavage site (N); made in house; host or cells: baculovirus infected insect cells (unpurified lysate)
Protocol: as §2, §3, §4
PDE4D5: The full-length human PDE4D5 isozyme with an N-terminal His6 tag (SEQ ID NO: 18) and TEV cleavage site expressed in baculovirus infected insect cells. The enzyme was not purified from the cell lysates, so enzyme concentrations were not determined. Enzyme was stored in 50% glycerol at −20°.
as §5

[4] = target: T4, PDE4B: The catalytic domain of human PDE4B from S152-S528 (Homo sapiens, UniProt Q07343); assay: PDE4 IC50 determination by Scintillation Proximity Assay, PDE4B; conditions: Table 1B, Formula I compounds; read-out: IC50 PDE4B
T4 construct: His6 (N); thrombin cleavage site (N); made in house; host or cells: E. coli
Procedure, shortened: as §1

T2 sequence (Q07343 1-564 isoform Q07343-2): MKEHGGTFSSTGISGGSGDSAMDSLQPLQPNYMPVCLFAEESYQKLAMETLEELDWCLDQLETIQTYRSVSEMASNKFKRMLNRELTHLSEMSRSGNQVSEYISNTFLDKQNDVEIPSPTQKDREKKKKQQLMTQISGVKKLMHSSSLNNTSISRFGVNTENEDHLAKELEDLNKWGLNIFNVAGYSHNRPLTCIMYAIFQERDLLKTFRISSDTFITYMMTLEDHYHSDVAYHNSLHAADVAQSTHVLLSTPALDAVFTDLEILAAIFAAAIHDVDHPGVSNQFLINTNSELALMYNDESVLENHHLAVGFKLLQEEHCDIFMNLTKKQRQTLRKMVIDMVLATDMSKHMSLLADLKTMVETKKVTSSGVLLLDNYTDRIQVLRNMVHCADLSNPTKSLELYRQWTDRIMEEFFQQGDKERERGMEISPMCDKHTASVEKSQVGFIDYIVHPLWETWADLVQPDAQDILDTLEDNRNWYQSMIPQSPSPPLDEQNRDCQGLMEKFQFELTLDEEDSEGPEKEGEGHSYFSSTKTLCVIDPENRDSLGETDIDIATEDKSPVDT
T4 sequence (Q07343 with tags, fused parts or gaps): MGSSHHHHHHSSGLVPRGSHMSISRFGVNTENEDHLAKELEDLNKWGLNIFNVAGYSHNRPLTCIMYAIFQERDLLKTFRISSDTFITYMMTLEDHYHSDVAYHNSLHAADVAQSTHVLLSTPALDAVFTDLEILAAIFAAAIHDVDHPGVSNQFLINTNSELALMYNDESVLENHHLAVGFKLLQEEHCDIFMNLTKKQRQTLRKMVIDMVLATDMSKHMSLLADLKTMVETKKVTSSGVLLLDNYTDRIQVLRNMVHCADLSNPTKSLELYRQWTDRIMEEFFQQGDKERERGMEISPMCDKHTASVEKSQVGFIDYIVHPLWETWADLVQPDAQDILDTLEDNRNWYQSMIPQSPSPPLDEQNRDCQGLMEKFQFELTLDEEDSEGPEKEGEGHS
T1 sequence (Q08499 380-756): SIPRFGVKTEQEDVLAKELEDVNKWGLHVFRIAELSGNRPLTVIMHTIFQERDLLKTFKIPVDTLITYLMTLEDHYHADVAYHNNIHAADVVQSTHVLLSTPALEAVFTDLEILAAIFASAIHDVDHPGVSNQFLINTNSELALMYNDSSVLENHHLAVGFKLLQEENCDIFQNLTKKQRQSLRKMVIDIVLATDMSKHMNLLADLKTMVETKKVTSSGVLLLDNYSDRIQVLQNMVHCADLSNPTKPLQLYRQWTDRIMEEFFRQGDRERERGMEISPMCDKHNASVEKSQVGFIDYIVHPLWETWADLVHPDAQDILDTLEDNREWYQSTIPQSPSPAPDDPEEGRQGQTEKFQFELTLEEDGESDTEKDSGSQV
T3 sequence (Q08499 1-745 isoform Q08499-6): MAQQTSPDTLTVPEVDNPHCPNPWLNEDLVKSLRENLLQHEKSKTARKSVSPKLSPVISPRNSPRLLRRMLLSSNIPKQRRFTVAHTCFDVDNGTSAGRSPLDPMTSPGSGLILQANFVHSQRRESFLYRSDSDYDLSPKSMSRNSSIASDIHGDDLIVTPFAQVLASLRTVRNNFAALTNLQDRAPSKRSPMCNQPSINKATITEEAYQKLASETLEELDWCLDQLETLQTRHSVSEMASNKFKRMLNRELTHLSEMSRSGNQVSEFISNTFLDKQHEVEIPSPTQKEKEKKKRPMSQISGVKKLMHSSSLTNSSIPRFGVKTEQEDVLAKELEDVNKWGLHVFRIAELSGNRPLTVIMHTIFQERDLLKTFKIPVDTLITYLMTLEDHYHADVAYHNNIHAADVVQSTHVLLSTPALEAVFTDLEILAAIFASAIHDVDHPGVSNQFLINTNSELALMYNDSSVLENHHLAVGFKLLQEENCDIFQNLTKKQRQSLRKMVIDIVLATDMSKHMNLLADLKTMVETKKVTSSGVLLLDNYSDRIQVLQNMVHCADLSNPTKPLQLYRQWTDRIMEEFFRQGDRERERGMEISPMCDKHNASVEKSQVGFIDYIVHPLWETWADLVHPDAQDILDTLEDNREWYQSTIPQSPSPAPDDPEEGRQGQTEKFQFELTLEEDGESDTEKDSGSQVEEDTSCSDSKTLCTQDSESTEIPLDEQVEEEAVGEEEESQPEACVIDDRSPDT

IC50 [1] | IC50 [2] | IC50 [3] | IC50 [4] | SMILES
< 10 µM | < 10 µM | < 10 µM | < 10 µM | N#Cc1c(NC2CCCC2)sc(C(=O)c2nc3ccccc3s2)c1N [Compound 1-215, 4-Amino-5-(benzothiazole-2-carbonyl)-2-cyclopentylamino-thiophene-3-carbonitrile]
< 10 µM | < 10 µM | < 10 µM | < 10 µM | CC(C)CNc1sc(C(=O)c2ccc(Oc3ccccc3)cc2)c(N)c1C#N [Compound 1-233, 4-Amino-2-isobutylamino-5-(4-phenoxy-benzoyl)-thiophene-3-carbonitrile]
< 10 µM | > 10 µM | > 10 µM | < 10 µM | N#Cc1c(NC2CCCC2)sc(C(=O)c2cc(-c3ccc(Cl)cc3Cl)no2)c1N [Compound 1-227, 4-Amino-2-cyclopentylamino-5-[3-(2,4-dichloro-phenyl)-isoxazole-5-carbonyl]-thiophene-3-carbonitrile]
< 10 µM | < 10 µM | < 10 µM | < 10 µM | Cc1ccc(C(=O)c2sc(NC3CCCC3)c(C#N)c2N)c(C)c1 [Compound 1-90, 4-Amino-2-cyclopentylamino-5-(2,4-dimethyl-benzoyl)-thiophene-3-carbonitrile]
< 10 µM | < 10 µM | < 10 µM | < 10 µM | CC(C)(C)Nc1sc(C(=O)c2cc(-c3ccccc3)no2)c(N)c1C#N [Compound 1-224, 4-Amino-2-tert-butylamino-5-(3-phenyl-isoxazole-5-carbonyl)-thiophene-3-carbonitrile]
> 10 µM | > 10 µM | > 10 µM | > 10 µM | N#Cc1c(NC2CCCCC2)sc(C(=O)c2cc(-c3ccccc3)no2)c1N [Compound 1-204, 4-Amino-2-cyclohexylamino-5-(3-phenyl-isoxazole-5-carbonyl)-thiophene-3-carbonitrile]
< 10 µM | > 10 µM | > 10 µM | < 10 µM | CCC(CC)Nc1sc(C(=O)c2cc(-c3ccccc3)no2)c(N)c1C#N [Compound 1-228, 4-Amino-2-(1-ethyl-propylamino)-5-(3-phenyl-isoxazole-5-carbonyl)-thiophene-3-carbonitrile]
< 10 µM | < 10 µM | < 10 µM | < 10 µM | COc1ccc(C(=O)c2sc(Nc3cccc(C#N)c3)c(C#N)c2N)c(OC)c1 [Compound 1-155, 4-Amino-2-(3-cyano-phenylamino)-5-(2,4-dimethoxy-benzoyl)-thiophene-3-carbonitrile]
> 10 µM | < 10 µM | > 10 µM | < 10 µM | N#Cc1c(NC2CCCC2)sc(C(=O)c2cc(-c3ccc(Cl)c(Cl)c3)no2)c1N [Compound 1-172, 4-Amino-2-cyclopentylamino-5-[3-(3-4-dichloro-phenyl)-isoxazole-5-carbonyl]-thiophene-3-carbonitrile]

Further lines, the compound ahead of its results:

SMILES | IC50 [1] | IC50 [2] | IC50 [3] | IC50 [4]
CCc1ccccc1Nc1sc(C(=O)c2ccc(-c3ccccn3)s2)c(N)c1C#N [Compound 1-81, 4-Amino-2-(2-ethyl-phenylamino)-5-(5-pyridin-2-yl-thiophene-2-carbonyl)-thiophene-3-carbonitrile] | < 10 µM | > 10 µM | > 10 µM | < 10 µM
N#Cc1c(Nc2ccc3c(c2)CCC3)sc(C(=O)c2ccc(-c3ccccn3)s2)c1N [Compound 1-71, 4-Amino-2-(indan-5-ylamino)-5-(5-pyridin-2-yl-thiophene-2-carbonyl)-thiophene-3-carbonitrile] | < 10 µM | < 10 µM | > 10 µM | < 10 µM
CCOC(=O)c1c(Nc2ccccc2OC)sc(C(=O)c2ccc(Br)cc2)c1N [Compound 1-1, 4-Amino-5-(4-bromo-benzoyl)-2-(2-methoxy-phenylamino)-thiophene-3-carboxylic acid ethyl ester] | < 10 µM | < 10 µM | < 10 µM | < 10 µM
N#Cc1c(NCCN2CCCCC2)sc(C(=O)c2cc(-c3ccc(Cl)cc3Cl)no2)c1N [Compound 1-82, 4-Amino-5-[3-(2,4-dichloro-phenyl)-isoxazole-5-carbonyl]-2-(2-piperidin-1-yl-ethylamino)-thiophene-3-carbonitrile] | > 10 µM | > 10 µM | > 10 µM | > 10 µM
COC(=O)C(CCSC)Nc1sc(C(=O)c2ccc(-c3ccccn3)s2)c(N)c1C#N (stereo not shown) [Compound 1-74, 2-[4-Amino-3-cyano-5-(5-pyridin-2-yl-thiophene-2-carbonyl)-thiophen-2-ylamino]-4-methylsulfanyl-butyric acid methyl ester] | < 10 µM | < 10 µM | < 10 µM | < 10 µM
CCOC(=O)c1c(Nc2ccccc2F)sc(C(=O)c2ccc(Cl)cc2)c1N [Compound 1-22, 4-Amino-5-(4-chloro-benzoyl)-2-(2-fluoro-phenylamino)-thiophene-3-carboxylic acid ethyl ester] | < 10 µM | < 10 µM | < 10 µM | < 10 µM
COc1ccccc1Nc1sc(C(=O)c2ccc(C)cc2)c(N)c1C#N [Compound 1-2, 4-Amino-2-(2-methoxy-phenylamino)-5-(4-methyl-benzoyl)-thiophene-3-carbonitrile] | < 10 µM | < 10 µM | < 10 µM | < 10 µM
N#Cc1c(Nc2ccccc2)sc(C(=O)c2ccccc2)c1N [Compound 1-16, 4-Amino-5-benzoyl-2-phenylamino-thiophene-3-carbonitrile] | > 10 µM | > 10 µM | > 10 µM | < 10 µM
N#Cc1c(Nc2ccccc2F)sc(C(=O)c2ccc(-c3ccccn3)s2)c1N [Compound 1-67, 4-Amino-2-(2-fluoro-phenylamino)-5-(5-pyridin-2-yl-thiophene-2-carbonyl)-thiophene-3-carbonitrile] | < 10 µM | < 10 µM | < 10 µM | < 10 µM
CCOC(=O)c1c(Nc2ccccc2OC)sc(C(=O)c2ccccc2)c1N [Compound 1-21, 4-Amino-5-benzoyl-2-(2-methoxy-phenylamino)-thiophene-3-carboxylic acid ethyl ester] | < 10 µM | < 10 µM | < 10 µM | < 10 µM
N#Cc1c(NC2CCCC2)sc(C(=O)c2ccccn2)c1N [Compound 1-66, 4-Amino-2-cyclopentylamino-5-(pyridine-2-carbonyl)-thiophene-3-carbontrile] | < 10 µM | < 10 µM | < 10 µM | < 10 µM
Cc1ccc(C(=O)c2sc(NC(=O)c3ccccc3C)c(C#N)c2N)c(C)c1 [Compound 1-86, N-[4-Amino-3-cyano-5-(2,4-dimethyl-benzoyl)-thiophen-2-yl]-2-methyl-benzamide] | < 10 µM | > 10 µM | > 10 µM | < 10 µM
N#Cc1c(Nc2ccc(C(=O)NC3CCOC3=O)cc2)sc(C(=O)c2ccc(-c3ccccn3)s2)c1N (stereo not shown) [Compound 1-77, 4-[4-Amino-3-cyano-5-(5-pyridin-2-yl-thiophene-2-carbonyl)-thiophen-2-ylamino]-N-(2-oxo-tetrahydro-furan-3-yl)-benzamide] | < 10 µM | < 10 µM | < 10 µM | < 10 µM
